Results: patent publication US7888372B2, “Compositions and methods for modulating bone mineral deposition” (National Institutes of Health (NIH), priority 2001, dated 2011)

Assays:
[1] = test system: PC-1-/- osteoblast cultures; experiment: Addition of recombinant proteins or PPi to PC-1-/- osteoblast cultures; assay type: cell-based, mouse
[2] = test system: ank/ank osteoblast cultures; experiment: Addition of recombinant proteins or PPi to ank/ank osteoblast cultures; assay type: cell-based, mouse
[3] = target: T1, TNAP activity (Mus musculus, UniProt P09242); parameters: endogenous in cells; settings: cited from earlier work
T1 sequence (P09242 18-501): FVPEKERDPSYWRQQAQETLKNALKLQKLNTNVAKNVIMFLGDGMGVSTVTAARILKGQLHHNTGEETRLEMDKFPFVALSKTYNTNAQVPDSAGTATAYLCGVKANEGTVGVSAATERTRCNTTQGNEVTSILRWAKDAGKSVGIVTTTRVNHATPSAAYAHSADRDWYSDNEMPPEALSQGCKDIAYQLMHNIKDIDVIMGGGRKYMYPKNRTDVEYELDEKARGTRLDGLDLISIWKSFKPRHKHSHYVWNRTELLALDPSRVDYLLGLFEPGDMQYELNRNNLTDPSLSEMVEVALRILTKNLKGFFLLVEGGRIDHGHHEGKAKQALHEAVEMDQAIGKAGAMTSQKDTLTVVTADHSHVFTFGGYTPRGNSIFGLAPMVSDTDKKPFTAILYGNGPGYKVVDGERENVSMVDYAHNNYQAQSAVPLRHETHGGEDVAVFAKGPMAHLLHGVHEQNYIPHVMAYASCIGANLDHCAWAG

[4] = test system: TNAP knock-out mice; settings: TNAP knock-out mice of Waymire et al.; cited from earlier work
[5] = test system: TNAP ko osteoblasts; experiment: Mineralization of bone nodules in primary TNAP ko osteoblast cultures (von Kossa); assay type: cell-based, mouse; settings: added to the ko osteoblast culture medium
Procedure: Primary cultures of osteoblasts were isolated from calvariae of 1-4 day old pups that were hybrids of C57Bl/6×129/J mouse strains with wild-type, heterozygote and homozygote TNAP null genotypes. Isolation was performed by a slightly modified version of the time sequential collagenase technique described by Boonekamp et al. (Proc. Kon. Ned. Akad. Wet. B87:371-382, 1984). In brief, calvariae of the same genotype were pooled and three 10 minute incubations in 4 mM EDTA, 137 mM NaCl, 2.7 mM KCl, 3 mM NaH2PO4, pH 7.2, were performed, followed by seven 10 minute digestions in EDTA-free buffer, containing 180 units/ml collagenase type II (Worthington Biochemical Corporation, Lakewood, N.J.). All isolations were performed at 37° C. in a shaking water bath. The last five collagenase digestions, containing an enriched cell population of osteoblastic phenotype, were pooled and seeded at 4×10^4 cells/cm^2 in αMEM (Gibco BRL, Grand Island, N.Y.), containing 10% heat-inactivated FCS, penicillin (50 U/ml) and streptomycin ([…]).
To study mineralization, we used conditions under which we observed that osteoblasts normally formed von Kossa stain positive and alizarin red positive nodules at 7-10 days in culture. In brief, primary calvarial osteoblasts were cultured in complete αMEM media as described above, supplemented with β-glycerophosphate (10 mM) every third day and L-ascorbic acid (50 μg/ml) daily. MC3T3-E1 cells (Johnson et al., J. Bone Min. Res. 14:883-892, 1999) were maintained in the same medium, and for each experiment were plated at 80% confluence (1×10^6 cells in a 10 cm tissue-culture plastic dish in 5 ml) and received β-glycerophosphate and L-ascorbic acid as for primary osteoblasts above.
To evaluate the ability of primary osteoblasts to form and mineralize bone nodules in vitro, wild-type (wt), heterozygous and knock-out (ko) osteoblasts were cultured in media supplemented with ascorbic acid, using β-glycerophosphate as phosphate source. […] The extent of bone mineral deposition in these cultures was confirmed by quantifications of deposited calcium. […]

For `O=P(O)(O)OP(=O)(O)O` [PPi, inorganic pyrophosphate, reference compound], which osteopontin expression levels ([1]; osteoblast cultures deficient in PC-1) is on record?
Its osteopontin expression levels is “corrected their osteopontin expression levels to those comparable to wild-type”.

What about the osteopontin expression levels ([2]; osteoblast cultures deficient in ANK protein) of the same molecule?
Its osteopontin expression levels is “corrected their osteopontin expression levels to those comparable to wild-type”.

What does the source list for “recombinant osteopontin: recombinant osteopontin added to osteoblast cultures”?
mineralization capacity (matrix calcification) ([1]; PC-1-/- osteoblast cultures): restored to normal; mineralization capacity (matrix calcification) ([2]; ank/ank osteoblast cultures): restored to normal

With `N=C(N)NCCCC[C@H](N)C(=O)O` [L-homoarginine] as the molecule, how does the “kind of inhibitor of TNAP activity” value [3] read?
The value was “specific uncompetitive inhibitors of TNAP activity”.

For `c1ccc([C@H]2CN3CCSC3=N2)cc1` [levamisole], which “kind of inhibitor of TNAP activity” value [3] is on record?
The value was “specific uncompetitive inhibitors of TNAP activity”.

For `Cc1ncc(CO)c(CO)c1O.Cl` [vitamin B6], which epileptic seizures [4] is on record?
The epileptic seizures was “partially rescue the epileptic seizures”.

What about the life span [4] of the same molecule?
The life span was “prolonging their life”.

B1: [V365I]TNAP: enzymatically inactive mutant of TNAP (protein, UniProt P05186 18-501, looked up, variant V365I)
Alkaline phosphatase, …: LVPEKEKDPKYWRDQAQETLKYALELQKLNTNVAKNVIMFLGDGMGVSTVTAARILKGQLHHNPGEETRLEMDKFPFVALSKTYNTNAQVPDSAGTATAYLCGVKANEGTVGVSAATERSRCNTTQGNEVTSILRWAKDAGKSVGIVTTTRVNHATPSAAYAHSADRDWYSDNEMPPEALSQGCKDIAYQLMHNIRDIDVIMGGGRKYMYPKNKTDVEYESDEKARGTRLDGLDLVDTWKSFKPRYKHSHFIWNRTELLTLDPHNVDYLLGLFEPGDMQYELNRNNVTDPSLSEMVVVAIQILRKNPKGFFLLVEGGRIDHGHHEGKAKQALHEAVEMDRAIGQAGSLTSSEDTLTVVTADHSHIFTFGGYTPRGNSIFGLAPMLSDTDKKPFTAILYGNGPGYKVVGGERENVSMVDYAHNNYQAQSAVPLRHETHGGEDVAVFSKGPMAHLLHGVHEQNYVPHVMAYAACIGANLGHCAPAS
With B1 as the molecule, how does the induction of mineralization [5] read?
Its induction of mineralization is “nor enzymatically inactive mutants of TNAP, such as [R54C]TNAP or [V365I]TNAP, were able to induce mineralization”.
